Measurements: PMC3064516 (Nature structural & molecular biology, 2011)

Target: Autotaxin (ATX, ENPP2) (Homo sapiens, UniProt Q13822)
Test: nucleotide phosphodiesterase assay, Km
Type: biochemical

**Q.** With Cc1cn([C@H]2C[C@H](O)[C@@H](COP(=O)(O)Oc3ccc([N+](=O)[O-])cc3)O2)c(=O)[nH]c1=O [pNP-TMP, p-nitrophenyl thymidine 5′-monophosphate] as the compound, how does the Km read?
**A.** Its Km is 1930 ± 200 µM.
